Measurements from PubChem BioAssay (NCI).
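Exposure lasted 48 hours, with cells grown in 96-well plates and compounds tested at five concentrations. TGI is the concentration that stops growth completely.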

How the values were obtained:
Experiment in all cases: NCI tumour cell line growth inhibition, 48 h
SNB-75 CNS = test system: SNB-75 CNS
OVCAR-5 ovarian = test system: OVCAR-5 ovarian
A498 renal = test system: A498 renal
A549 NSCLC = test system: A549 NSCLC
SW-620 colon = test system: SW-620 colon
SN12K1 renal = test system: SN12K1 renal
SR leukemia = test system: SR leukemia
P388/ADR leukemia = test system: P388/ADR leukemia
COLO 205 colon = test system: COLO 205 colon
NCI-H522 lung = test system: NCI-H522 lung
OVCAR-4 ovarian = test system: OVCAR-4 ovarian
SK-MEL-28 melanoma = test system: SK-MEL-28 melanoma
MDA-N = test system: MDA-N
NCI-H23 lung = test system: NCI-H23 lung
SNB-19 CNS = test system: SNB-19 CNS
CAKI-1 renal = test system: CAKI-1 renal
DU-145 prostate = test system: DU-145 prostate
SK-MEL-5 melanoma = test system: SK-MEL-5 melanoma
SF-295 CNS = test system: SF-295 CNS
HOP-92 NSCLC = test system: HOP-92 NSCLC
DLD-1 colon = test system: DLD-1 colon
LOX IMVI melanoma = test system: LOX IMVI melanoma
OVCAR-8 ovarian = test system: OVCAR-8 ovarian
M19-MEL melanoma = test system: M19-MEL melanoma
KM20L2 colon = test system: KM20L2 colon
HCT-15 colon = test system: HCT-15 colon
HOP-62 NSCLC = test system: HOP-62 NSCLC
SNB-78 CNS = test system: SNB-78 CNS
OVCAR-3 ovarian = test system: OVCAR-3 ovarian
SK-MEL-2 melanoma = test system: SK-MEL-2 melanoma
DMS 273 small cell lung = test system: DMS 273 small cell lung
UACC-257 melanoma = test system: UACC-257 melanoma
IGROV1 ovarian = test system: IGROV1 ovarian
MDA-MB-435 = test system: MDA-MB-435
CCRF-CEM leukemia = test system: CCRF-CEM leukemia
HOP-18 NSCLC = test system: HOP-18 NSCLC
U251 CNS = test system: U251 CNS
K-562 leukemia = test system: K-562 leukemia
RXF 393 renal = test system: RXF 393 renal
MDA-MB-231 breast = test system: MDA-MB-231 breast
SN12C renal = test system: SN12C renal
KM12 colon = test system: KM12 colon
SF-268 CNS = test system: SF-268 CNS
SF-539 CNS = test system: SF-539 CNS
MOLT-4 leukemia = test system: MOLT-4 leukemia
NCI-H226 lung = test system: NCI-H226 lung
MALME-3M melanoma = test system: MALME-3M melanoma
MCF7 breast = test system: MCF7 breast
HCC-2998 colon = test system: HCC-2998 colon
786-0 renal = test system: 786-0 renal
UO-31 renal = test system: UO-31 renal
DMS 114 small cell lung = test system: DMS 114 small cell lung
RPMI-8226 leukemia = test system: RPMI-8226 leukemia
HT29 colon = test system: HT29 colon
BT-549 breast = test system: BT-549 breast
XF 498 CNS = test system: XF 498 CNS
HS 578T breast = test system: HS 578T breast
TK-10 renal = test system: TK-10 renal
SK-OV-3 ovarian = test system: SK-OV-3 ovarian
HCT-116 colon = test system: HCT-116 colon
M14 melanoma = test system: M14 melanoma
UACC-62 melanoma = test system: UACC-62 melanoma
HL-60(TB) leukemia = test system: HL-60(TB) leukemia
PC-3 prostate = test system: PC-3 prostate
ACHN renal = test system: ACHN renal
EKVX NSCLC = test system: EKVX NSCLC
NCI-H460 lung = test system: NCI-H460 lung
P388 leukemia = test system: P388 leukemia
NCI/ADR-RES ovarian = test system: NCI/ADR-RES ovarian
T-47D breast = test system: T-47D breast

Work on `COc1ccc(/C(Cl)=C(\C=O)c2ccc(OC)c(OC)c2)cc1OC` yielded a TGI (SNB-75 CNS) of 0.041 mM, a TGI (OVCAR-5 ovarian) of over 0.0487 mM and a TGI (A498 renal) of over 0.1 mM. It also gave a TGI (A549 NSCLC) of over 0.1 mM, a TGI (SW-620 colon) of over 0.1 mM and a TGI (SN12K1 renal) of over 0.1 mM. The TGI (SR leukemia) was over 0.1 mM, the TGI (P388/ADR leukemia) was over 0.0858 mM and the TGI (COLO 205 colon) was over 0.1 mM. It also gave a TGI (NCI-H522 lung) of over 0.1 mM, a TGI (OVCAR-4 ovarian) of over 0.1 mM and a TGI (SK-MEL-28 melanoma) of over 0.1 mM. For the same molecule, the TGI (MDA-N) was over 0.1 mM, the TGI (NCI-H23 lung) was over 0.1 mM and the TGI (SNB-19 CNS) was over 0.1 mM. For the same molecule, the TGI (CAKI-1 renal) was over 0.1 mM, the TGI (DU-145 prostate) was over 0.1 mM and the TGI (SK-MEL-5 melanoma) was over 0.1 mM. The TGI (SF-295 CNS) was 0.0482 mM, the TGI (HOP-92 NSCLC) was over 0.1 mM and the TGI (DLD-1 colon) was over 0.1 mM. For the same molecule, the TGI (LOX IMVI melanoma) was over 0.1 mM, the TGI (OVCAR-8 ovarian) was over 0.1 mM and the TGI (M19-MEL melanoma) was over 0.1 mM. For the same molecule, the TGI (KM20L2 colon) was over 0.1 mM, the TGI (HCT-15 colon) was over 0.1 mM and the TGI (HOP-62 NSCLC) was over 0.1 mM. For the same molecule, the TGI (SNB-78 CNS) was over 0.1 mM, the TGI (OVCAR-3 ovarian) was over 0.0577 mM and the TGI (SK-MEL-2 melanoma) was over 0.1 mM. The TGI (DMS 273 small cell lung) was over 0.1 mM, the TGI (UACC-257 melanoma) was over 0.0663 mM and the TGI (IGROV1 ovarian) was over 0.1 mM. The TGI (MDA-MB-435) was over 0.1 mM, the TGI (CCRF-CEM leukemia) was over 0.1 mM and the TGI (HOP-18 NSCLC) was over 0.1 mM. It also gave a TGI (U251 CNS) of over 0.1 mM, a TGI (K-562 leukemia) of over 0.1 mM and a TGI (RXF 393 renal) of 0.0997 mM. The TGI (MDA-MB-231 breast) was over 0.1 mM, the TGI (SN12C renal) was over 0.1 mM and the TGI (KM12 colon) was over 0.1 mM. It also gave a TGI (SF-268 CNS) of over 0.0398 mM, a TGI (SF-539 CNS) of over 0.1 mM and a TGI (MOLT-4 leukemia) of over 0.1 mM. For the same molecule, the TGI (NCI-H226 lung) was 0.0999 mM, the TGI (MALME-3M melanoma) was over 0.1 mM and the TGI (MCF7 breast) was over 0.1 mM. The TGI (HCC-2998 colon) was over 0.1 mM, the TGI (786-0 renal) was over 0.1 mM and the TGI (UO-31 renal) was over 0.1 mM. The TGI (DMS 114 small cell lung) was over 0.1 mM, the TGI (RPMI-8226 leukemia) was over 0.1 mM and the TGI (HT29 colon) was over 0.0679 mM. For the same molecule, the TGI (BT-549 breast) was over 0.1 mM, the TGI (XF 498 CNS) was over 0.1 mM and the TGI (HS 578T breast) was over 0.1 mM. The TGI (TK-10 renal) was over 0.1 mM, the TGI (SK-OV-3 ovarian) was over 0.1 mM and the TGI (HCT-116 colon) was over 0.1 mM. For the same molecule, the TGI (M14 melanoma) was over 0.1 mM, the TGI (UACC-62 melanoma) was over 0.1 mM and the TGI (HL-60(TB) leukemia) was over 0.1 mM. For the same molecule, the TGI (PC-3 prostate) was over 0.1 mM, the TGI (ACHN renal) was over 0.1 mM and the TGI (EKVX NSCLC) was over 0.1 mM. It also gave a TGI (NCI-H460 lung) of over 0.1 mM, a TGI (P388 leukemia) of over 0.1 mM and a TGI (NCI/ADR-RES ovarian) of over 0.1 mM.

Molecule `CC(=O)NCCCCCCNC(C)=O` has a TGI (SNB-75 CNS) of 8.83 mM, a TGI (OVCAR-5 ovarian) of over 10 mM and a TGI (A498 renal) of over 9.69 mM. For the same molecule, the TGI (A549 NSCLC) was over 9.66 mM, the TGI (SW-620 colon) was over 10 mM and the TGI (SN12K1 renal) was over 10 mM. It also gave a TGI (SR leukemia) of over 10 mM, a TGI (P388/ADR leukemia) of over 10 mM and a TGI (COLO 205 colon) of over 10 mM. The TGI (NCI-H522 lung) was 9.12 mM, the TGI (OVCAR-4 ovarian) was over 9.59 mM and the TGI (SK-MEL-28 melanoma) was over 10 mM. It also gave a TGI (MDA-N) of over 10 mM, a TGI (NCI-H23 lung) of over 10 mM and a TGI (SNB-19 CNS) of over 10 mM. For the same molecule, the TGI (CAKI-1 renal) was over 10 mM, the TGI (DU-145 prostate) was over 10 mM and the TGI (SK-MEL-5 melanoma) was over 10 mM. For the same molecule, the TGI (SF-295 CNS) was over 10 mM, the TGI (HOP-92 NSCLC) was over 6.73 mM and the TGI (DLD-1 colon) was over 10 mM. It also gave a TGI (LOX IMVI melanoma) of over 10 mM, a TGI (OVCAR-8 ovarian) of over 10 mM and a TGI (T-47D breast) of over 10 mM. It also gave a TGI (M19-MEL melanoma) of over 10 mM, a TGI (KM20L2 colon) of over 10 mM and a TGI (HCT-15 colon) of over 10 mM. It also gave a TGI (HOP-62 NSCLC) of over 10 mM, a TGI (SNB-78 CNS) of over 10 mM and a TGI (OVCAR-3 ovarian) of 9.84 mM. It also gave a TGI (SK-MEL-2 melanoma) of over 10 mM, a TGI (DMS 273 small cell lung) of 7.25 mM and a TGI (UACC-257 melanoma) of over 10 mM. The TGI (IGROV1 ovarian) was over 10 mM, the TGI (MDA-MB-435) was over 10 mM and the TGI (CCRF-CEM leukemia) was over 10 mM. It also gave a TGI (HOP-18 NSCLC) of over 10 mM, a TGI (U251 CNS) of over 10 mM and a TGI (K-562 leukemia) of over 10 mM. For the same molecule, the TGI (RXF 393 renal) was over 10 mM, the TGI (MDA-MB-231 breast) was over 5.62 mM and the TGI (SN12C renal) was over 10 mM. For the same molecule, the TGI (KM12 colon) was over 10 mM, the TGI (SF-268 CNS) was over 10 mM and the TGI (SF-539 CNS) was over 10 mM. The TGI (MOLT-4 leukemia) was over 10 mM, the TGI (NCI-H226 lung) was over 10 mM and the TGI (MALME-3M melanoma) was 7.7 mM. The TGI (MCF7 breast) was over 9.38 mM, the TGI (HCC-2998 colon) was over 8.61 mM and the TGI (786-0 renal) was over 10 mM. The TGI (UO-31 renal) was over 10 mM, the TGI (DMS 114 small cell lung) was over 10 mM and the TGI (RPMI-8226 leukemia) was over 10 mM. For the same molecule, the TGI (HT29 colon) was over 10 mM, the TGI (BT-549 breast) was over 10 mM and the TGI (XF 498 CNS) was 8.38 mM. For the same molecule, the TGI (HS 578T breast) was over 10 mM, the TGI (TK-10 renal) was over 10 mM and the TGI (SK-OV-3 ovarian) was over 10 mM. It also gave a TGI (HCT-116 colon) of over 10 mM, a TGI (M14 melanoma) of over 10 mM and a TGI (UACC-62 melanoma) of 9.87 mM. It also gave a TGI (HL-60(TB) leukemia) of 9 mM, a TGI (PC-3 prostate) of over 10 mM and a TGI (ACHN renal) of over 10 mM. The TGI (EKVX NSCLC) was over 10 mM, the TGI (NCI-H460 lung) was over 7.5 mM and the TGI (P388 leukemia) was over 10 mM. For the same molecule, the TGI (NCI/ADR-RES ovarian) was over 10 mM.
